Results reported in patent publication EP0520336A2, “Aldehyde derivatives and their use as calpain inhibitors” (FUJIREBIO Inc., priority 1991, dated 1992).

Biological target: a-chymotrypsin (Bos taurus, UniProt P00766)
Assay: Measurement of inhibitory effect on a-chymotrypsin (glutaryl-L-phenylalanine-p-nitroanilide substrate)
Assay type: biochemical
Conditions: a-chymotrypsin activity, 25 ° C, pH = 7.8
Procedure: Test Example 3 Measurement of Inhibitory Effect on Protease other than Calpain
(2) Measurement of Inhibitory Effect on a-Chymotrypsin
The inhibitory effect on a-chymotrypsin was measured by a partially modified method of Erlanger, B. F. as described in Ach. Biochem. Biophys. 115, 206-210 (1966). […]
The mixture was preincubated at 25 ° C for 3 minutes. […] The increase of 405 nm absorbance was measured at 25 ° C with time, and the transition rate (a) of the absorbance per min was calculated.
The rate (b) of the absorbance of a blank sample treated similarly without any compound dissolved in combined dimethyl sulfoxide and 10% polyoxyethylene 60 hardened castor oil was measured. The inhibition of a-chymotrypsin activity was calculated in accordance with the formula [(b-a)/b] X 100, and the amount of each compound necessary to inhibit a-chymotrypsin activity by 50% [ICso] was calculated according to the method of Probit.
The inhibitory effect of SUAM-14541, a compound disclosed in Japanese Laid-Open Patent Application 1-121257, on a-chymotrypsin activity was measured for comparison.

SMILES: CC(C)C[C@H](NC(=O)OCc1ccccc1)C(=O)N[C@H](C=O)COCc1ccsc1 [Compound No. 3-6, L-N-benzyloxycarbonylleucine-(2S)-[1-formyl-2-(thiophene-3-ylmethyl)oxy]ethylamide]
- IC50: > 100 µM
